Earlier results on one compound are cited in patent publication US11179338B1, “Powder for oral suspension containing tadalafil” (AUSON PHARMACEUTICALS INC., priority 2021, dated 2021).

Consider `CN1CC(=O)N2[C@H](c3ccc4c(c3)OCO4)c3[nH]c4ccccc4c3C[C@@H]2C1=O` [Tadalafil, pyrazino [1′,2′:1,6]pyrido[3,4-b]indole-1,4-dione, 6-(1,3-benzodioxol-5-yl) 2,3,6,7,12,12a-hexahydro-2-methyl-, (6R,12aR)-], for which the solubility in water entry is “insoluble”.
